Results on nine molecules are retold here after patent US20140045890A1, “NOVEL COMPOUNDS” (SYNGENTA PARTICIPATIONS AG, priority 2011, published 2014).

The subject of data set [1] is Phytophthora infestans. Kind of data set: whole plant or invertebrate. It counts as in vivo. To be noted: in Solanum lycopersicum, foliar, read-out: inhibit fungal infestation (percent disease control compared to untreated).
The subject of data set [2] is Plasmopara viticola. Kind of data set: Plasmopara viticola / grape / leaf disc preventative. The class given is in vivo. To be noted: foliar, grape vine leaf disks, inoculated 1 day after application, assessed 6-8 days after application, read-out: inhibit fungal infestation (percent disease control compared to untreated).
For data set [3], the system named is Blumeria qraminis f. sp. tritici (Erysiphe qraminis f. sp. tritici). The data set is described as follows: Blumeria graminis f. sp. tritici / wheat / leaf disc preventative (powdery mildew on wheat). It counts as in vivo. To be noted: foliar, wheat leaf segments cv. Kanzler, inoculated 1 day after application, assessed 6-8 days after application, read-out: inhibit fungal infestation (percent disease control compared to untreated).

Data set [4] concerns Phaeosphaeria nodorum (Septoria nodorum). The data set is described as follows: Phaeosphaeria nodorum (Septoria nodorum) / wheat / leaf disc preventative (glume blotch). It counts as in vivo. To be noted: Parastagonospora nodorum, foliar, wheat leaf segments cv. Kanzler, inoculated 2 days after application, assessed 5-7 days after application, read-out: inhibit fungal infestation (percent disease control compared to untreated).

Data set [5] deals with Pythium ultimum. The data set is described as follows: Pythium ultimum / liquid culture (seedling damping off). The class given is cell-based. The note with it: Globisporangium ultimum, liquid culture in PDB, 24° C., 2-3 days after application, read-out: inhibit fungal infestation (inhibition of growth determined photometrically).

SMILES strings stand for the structures.

On to `C#Cc1cnc2c(F)cc(OC(SC)C(=O)NC(C)(C)c3ccccn3)cc2c1` (stereo not drawn) [Compound 11], for which the melting point amounted to 125 °C. Further, the inhibition at 200 ppm in data set [1] is no less than 80%. In addition, the inhibition at 200 ppm in data set [2] is no less than 80%. Moreover, in data set [3], the inhibition at 200 ppm is no less than 80%. Also, the inhibition at 200 ppm in data set [4] is no less than 80%. Further, the inhibition at 200 ppm in data set [5] is no less than 80%.
`C#Cc1cnc2c(Cl)cc(OC(OC)C(=O)NC(C)(C)c3ccccn3)cc2c1` (stereo not drawn) [Compound 12]: the melting point was 108 °C. For the same molecule, in data set [1], the inhibition at 200 ppm is no less than 80%. For the same molecule, the inhibition at 200 ppm in data set [2] is no less than 80%. Further, the inhibition at 200 ppm in data set [3] is no less than 80%. Besides, the inhibition at 200 ppm in data set [4] was no less than 80%. The inhibition at 200 ppm in data set [5] was no less than 80%.
For `C#Cc1cnc2ccc(OC(CC)C(=O)NC(C)(C)c3ccccn3)cc2c1` (stereo not drawn) [Compound 13], the melting point came out at 96 °C. The inhibition at 200 ppm in data set [1] is no less than 80%. The inhibition at 200 ppm in data set [2] is no less than 80%. Besides, the inhibition at 200 ppm in data set [3] is no less than 80%. In addition, the inhibition at 200 ppm in data set [4] is no less than 80%. Further, in data set [5], the inhibition at 200 ppm is no less than 80%.
`C#Cc1cnc2ccc(OC(SC)C(=O)NC(C)(C)c3cccc(C)n3)cc2c1` (stereo not drawn) [Compound 15] registered a melting point of 148 °C. In addition, in data set [1], the inhibition at 200 ppm is no less than 80%. The inhibition at 200 ppm in data set [2] was no less than 80%. Also, the inhibition at 200 ppm in data set [3] was no less than 80%. The inhibition at 200 ppm in data set [4] was no less than 80%. Further, the inhibition at 200 ppm in data set [5] is no less than 80%.
The molecule `C#Cc1cnc2ccc(OC(SC)C(=O)NC(C)(C)c3cc(C)ccn3)cc2c1` (stereo not drawn) [Compound 18, 2-[(3-ethynyl-6-quinolyl)oxy]-N-[1-methyl-1-(4-methyl-2-pyridyl)ethyl]-2-methylsulfanyl-acetamide] showed a melting point of 63 °C. In data set [1], the inhibition at 200 ppm was no less than 80%. The inhibition at 200 ppm in data set [2] was no less than 80%. In data set [3], the inhibition at 200 ppm is no less than 80%. For the same molecule, the inhibition at 200 ppm in data set [4] was no less than 80%. Besides, the inhibition at 200 ppm in data set [5] is no less than 80%.
Molecule `C#Cc1cnc2ccc(OC(SC)C(=O)NC(C)(CC)c3nc(C)cs3)cc2c1` (stereo not drawn) [Compound 20] yielded a melting point of 120 °C. For the same molecule, the inhibition at 200 ppm in data set [1] was no less than 80%. The inhibition at 200 ppm in data set [2] was no less than 80%. The inhibition at 200 ppm in data set [3] was no less than 80%. For the same molecule, the inhibition at 200 ppm in data set [4] was no less than 80%. Also, in data set [5], the inhibition at 200 ppm was no less than 80%.
`C#Cc1cnc2c(C)cc(OC(SC)C(=O)NCc3nc(C)cs3)cc2c1` (stereo not drawn) [Compound 24] showed a melting point of 148 °C. Also, the inhibition at 200 ppm in data set [1] was no less than 80%. Also, the inhibition at 200 ppm in data set [2] was no less than 80%. In addition, the inhibition at 200 ppm in data set [3] is no less than 80%. The inhibition at 200 ppm in data set [4] was no less than 80%. For the same molecule, the inhibition at 200 ppm in data set [5] was no less than 80%.
`C#Cc1cnc2ccc(OC(SC)C(=O)NC(C)(C)c3nccs3)cc2c1` (stereo not drawn) [Compound 32] returned a melting point of 123 °C. In addition, the inhibition at 200 ppm in data set [1] was no less than 80%. In data set [2], the inhibition at 200 ppm was no less than 80%. Besides, the inhibition at 200 ppm in data set [3] is no less than 80%. Besides, the inhibition at 200 ppm in data set [4] was no less than 80%. For the same molecule, the inhibition at 200 ppm in data set [5] is no less than 80%.
With `C=Cc1cnc2c(C)cc(OC(OC)C(=O)NC(C)(C)c3nc(C)cs3)cc2c1` (stereo not drawn) [Compound 135], the melting point came to 139 °C. Moreover, in data set [1], the inhibition at 200 ppm is no less than 80%. In addition, in data set [2], the inhibition at 200 ppm is no less than 80%. Further, the inhibition at 200 ppm in data set [3] was no less than 80%. Also, in data set [4], the inhibition at 200 ppm is no less than 80%. The inhibition at 200 ppm in data set [5] is no less than 80%.

Usually melting point stands for the temperature of the solid-liquid transition.
